Key:
xenograft tumor models = test: Xenograft tumor models; conditions: in vivo
[1] = system: CRPC patients with bone metastases; test: Phase 2 adaptive randomized discontinuation trial (RDT), Case Study 2; format: in vivo, human; conditions: for patients reporting improvements in bone pain: baseline bone pain; for patients achieving tumor regression / patients experiencing pain relief / patients reducing or eliminating need for narcotic analgesics / patients with marked declines in markers of bone turnover / patients free of disease progression at month 6: post hoc
Source text: Data on bone pain and narcotic use, as assessed by the investigator, were collected retrospectively.

[2] = system: breast cancer with bone metastases; test: Randomized discontinuation study, breast cancer with bone metastases (Case Study 6); format: in vivo, human; conditions: of 10 evaluable for bone scan resolution (forty percent)
[3] = system: melanoma with bone metastases; test: Randomized discontinuation study, melanoma with bone metastases (Case Study 5); format: in vivo, human; conditions: 39 of 65 patients
[4] = system: CRPC patients with evidence of bone metastases on bone scan; test: Phase 2 adaptive trial NCT00940225, first three CRPC patients with bone metastases (Case Study 1); format: in vivo, human
Method: In 2000, local disease recurrence was treated with radiation therapy. […] CAB with leuprolide and bicalutamide was initiated.

[5] = Phase 1 clinical study, tolerability; format: in vivo, human; conditions: most common adverse events: fatigue, diarrhea, anorexia, rash, palmar-plantar erythrodysesthesia
[6] = system: renal cell carcinoma with bone metastases; test: Phase I trial, renal cell carcinoma with bone metastases (Case Study 4); format: in vivo, human
[7] = system: pancreatic neuroendocrine tumor model; test: Murine pancreatic neuroendocrine tumor model; conditions: mouse, in vivo
[8] = system: differentiated thyroid cancer, bone metastasis to the skull; test: Phase 1 drug-drug trial, differentiated thyroid cancer with bone metastasis (Case Study 7); format: in vivo, human; conditions: one patient, after 9 weeks of treatment
[9] = patients with bone scan resolution
[10] = patients without bone scan resolution

In the case of `COc1cc2nccc(Oc3ccc(NC(=O)C4(C(=O)Nc5ccc(F)cc5)CC4)cc3)c2cc1OC` [Compound 1, N-(4-{[6,7-bis(methyloxy)quinolin-4-yl]oxy}phenyl)-N′-(4-fluorophenyl)cyclopropane-1,1-dicarboxamide], the “tumor effect in xenograft tumor models” value (xenograft tumor models) is reported as “causes tumor regression”, the “patients able to decrease or discontinue narcotic medication for bone pain” value ([1]; 47 of 67 patients on narcotic analgesics at baseline) is reported as 70% and the “patients with pain improvement” value ([1]; 56 of 83 patients with bone metastases and bone pain at baseline, at either Week 6 or 12) is reported as 68%. The “patients with resolution or stabilization of metastatic bone lesions on bone scan” value ([1]; 82 of 108 evaluable patients) was 76%, the “hemoglobin levels in anemic patients” value ([1]; anemic patients) was “Durable increases” and the “patients reporting improvements in bone pain” value ([1]; complete resolution by bone scan (n=10)) was 80%. The “patients reporting improvements in bone pain” value ([1]; partial resolution by bone scan (n=32)) was 84%, the “patients reporting improvements in bone pain” value ([1]; stabilization of disease by bone scan (n=13)) was 38% and the “median PFS” value ([1]; docetaxel-naïve patients (95% CI 24, upper limit not yet reached)) was 24 weeks. For the same molecule, the “median PFS” value ([1]; docetaxel-pretreated patients (95% CI 18, 33)) was 29 weeks, the “patients with stable disease (SD) on bone scan” value ([1]; independent reviewer, 23 of n=108) was 21% and the “subjects with partial or complete resolution of bone scan” value ([1]; independent reviewer, 82 of n=108) was 76%. The “patients with progressive disease in bone as best assessment” value ([1]; independent reviewer, three of n=108) was 3%, the “median PFS” value ([1]; overall population excluding those randomized to placebo, n=154) was 29 weeks and the “patients achieving tumor regression” value [1, 9] was 78%. The “patients experiencing pain relief” value [1, 9] was 83%, the “patients reducing or eliminating need for narcotic analgesics” value [1, 9] was 68% and the “patients with marked declines in markers of bone turnover” value [1, 9] was 60%. For the same molecule, the “patients free of disease progression at month 6” value ([1]; patients with bone scan resolution (complete or partial)) was 61%, the “patients achieving tumor regression” value [1, 10] was 58% and the “patients experiencing pain relief” value [1, 10] was 43%. The “patients reducing or eliminating need for narcotic analgesics” value [1, 10] was 33%, the “patients with marked declines in markers of bone turnover” value [1, 10] was 43% and the “patients free of disease progression at month 6” value ([1]; patients without bone scan resolution (stable or progressing bone scan)) was 35%. For the same molecule, the “reduction in the risk of progression compared with placebo” value ([1]; randomized discontinuation phase) was 87%, the “investigator-assessed median PFS from week 12 onward” value ([1]; randomized discontinuation phase, patients with SD at week 12, Compound 1 group n=14 (95% CI: 11 weeks, upper limit not yet reached)) was 21 weeks and the “patients with tumor shrinkage based on bone scan analysis” value [2] was 4 patients. The “patients with tumor shrinkage based on bone scan analysis” value [3] was 60%, the “Bone scan (best response)” value ([4]; Patient 1) was “Complete resolution” and the “Hemoglobin (best response, change)” value ([4]; Patient 1) was “+1.4 g/dL”. The “PSA (best response, change)” value ([4]; Patient 1) was −78%, the “Pain (best response)” value ([4]; Patient 1) was “Improvement” and the “tALP (best response, change)” value ([4]; Patient 1) was −77%. The “radiotracer uptake by bone metastases on bone scan” value ([4]; Patient 1, Week 6) was “dramatic decrease”, the “bone lesions on bone scan” value ([4]; Patient 1, Week 12, stable through Week 18) was “near complete resolution” and the “adverse event leading to withdrawal” value ([4]; Patient 1, Week 18) was “Grade 3 diarrhea”. For the same molecule, the bone pain ([4]; Patient 1, four weeks after start) was “significant reduction”, the “Bone scan (best response)” value ([4]; Patient 2) was “Improvement” and the “Hemoglobin (best response, change)” value ([4]; Patient 2) was “+1.8 g/dL”. For the same molecule, the “PSA (best response, change)” value ([4]; Patient 2) was “+61%”, the “Pain (best response)” value ([4]; Patient 2) was “Pain-free” and the “tALP (best response, change)” value ([4]; Patient 2) was −6%. For the same molecule, the bone pain ([4]; Patient 2, Week 4) was “reduction in bone pain”, the “radiotracer uptake by bone lesions on bone scan” value ([4]; Patient 2, Week 6) was “slight flair” and the “hemoglobin increase compared with baseline” value ([4]; Patient 2, Week 12) was 1.8 g/dL. The “radiotracer uptake on bone scan” value ([4]; Patient 2, Week 12) was “substantial reduction”, the PSA peak ([4]; Patient 2, by Week 16, placebo from Week 12, crossed over to Compound 1 at Week 15) was ~6 fold of baseline and the PSA ([4]; Patient 2, by Week 18, subsequent to crossing over to Compound 1 from placebo) was 2 fold of baseline. For the same molecule, the “Bone scan (best response)” value ([4]; Patient 3) was “Near resolution”, the “Hemoglobin (best response, change)” value ([4]; Patient 3) was “+2.2 g/dL” and the “PSA (best response, change)” value ([4]; Patient 3) was −57%. The “Pain (best response)” value ([4]; Patient 3) was “Pain-free”, the “tALP (best response, change)” value ([4]; Patient 3) was −77% and the “hemoglobin increase compared with baseline” value ([4]; Patient 3, Week 2) was 2.2 g/dL. The “radiotracer uptake on bone scan” value ([4]; Patient 3, Week 6) was “dramatic reduction”, the “bone lesions on bone scan” value ([4]; Patient 3, Week 12) was “complete resolution of bone lesions” and the pain ([4]; Patient 3, after three weeks) was “complete resolution of pain”. For the same molecule, the tolerability [5] was “generally well-tolerated”, the bone scan analysis ([6]; one patient (FIG. 4)) was “tumor shrinkage was observed” and the “narcotic use to control pain” value ([6]; same patient, by seven weeks, continued until week 25) was “substantially reduced narcotic use”. The pain ([6]; second patient, pain score 5 on a scale of 10 at baseline, by four weeks, pain-free as of week 73) was “complete resolution of pain”, the overall survival [7] was “substantially improves” and the “tumor invasiveness and metastasis” value [7] was “significantly reduces”. For the same molecule, the “response of skull bone metastasis as judged by MRI” value [8] was “dramatic response”.

— patent US11504363B2, “Method of treating cancer and bone cancer pain” (Exelixis, Inc., priority 2011, dated 2022)
